Data reported in US20070202047A1, “Polyamine-substituted ligands for use as contrast agents” (priority 2006, published 2007).

What was measured:
[1] = Biodistribution and excretion in tumor-bearing ACI rats; format: in vivo, rat; details: for gadolinium obtained in the faeces / gadolinium obtained in the urine: 24 h after injecting
Experimental: Animal models. For in vivo tumor studies 2×10^6 MH3924A tumor cells were injected subcutaneously into the right thigh of male ACI rats (Charles River, Sulzfeld, Germany) weighing 220 to 260 g. All animal experiments were performed in compliance with the German Animal Protection Laws (Permission 35-9185.81/G-7-03, Reg.-Praesidium, Karlsruhe, Germany).
Biodistribution and excretion data. At 14 days after tumor inoculation, when tumors had reached a diameter of ca. 5-6 mm, the biodistribution experiments were initiated. Each animal (210-250 g) was given an intravenous tail-vein injection of […] Magnevist® (Schering, Berlin, Germany) or […] of Gd-5.1. or Gd-6.1. 1 h and 24 hs post-injection (p.i.), the animals were weighed, sacrificed by cervical dislocation and dissected. Organs or tissues were blotted dry and weighed. Samples containing 100-500 mg of the tumor or organs were digested with concentrated HNO3 (Superselect; Merck, Darmstadt, Germany) and H2O2 under microwave heating with a Mars 5 apparatus (CEM GmbH, Kamp-Lintfort, Germany). To each sample 100 μL of an aqueous solution of rhodium chloride (1 μg/mL) were added so that Rh-103 could be used as an internal quantification standard. Gd-160 measurements were performed with the ICP-MS instrument mentioned above. The gadolinium concentrations were determined using standard curves created prior to tissue analyses. The results were expressed as % ID/g tissue. Urine and faeces were gathered in order to measure the excreted amount of Gd(III).

MH3924A cells = assay: Subcellular distribution; format: cell-based, rat; details: 100 μM, 24 h, 37° C.
Experimental: Subcellular distribution. 5×10^6 MH3924A cells were grown in 25 cm^2 culture flasks (BD Biosciences, Bedford, USA) for 24 h in 10 mL of the standard culture medium. Cells were then incubated for an additional 24 h with 100 μM Gd-5.1. Afterwards the medium was removed, cells were trypsinated. Then the organelles were isolated with the Subcellular Proteome Extraction Kit ProteoExtract® (Merck, Darmstadt, Germany) according to the instructions of the manufacturer. Four fractions were obtained: Cytosol, membrane organelles (mainly mitochondria), nucleus and cytoskeleton (with associated endosomes and lysosomes). The gadolinium content for each fraction was determined by ICP-MS as described below.
ICP-MS. Samples containing the above mentioned number of harvested cells were digested with 50% concentrated HNO3 (Superselect; Merck, Darmstadt, Germany) under microwave heating with a Mars 5 apparatus (CEM GmbH, Kamp-Lintfort, Germany). To each sample 100 μL of an aqueous solution of rhodium chloride (1 μg/mL) were added so that Rh-103 could be used as an internal quantification standard. Gd-160 measurements were performed with the ICP-MS instrument mentioned above. The gadolinium concentrations were determined using standard curves created prior to cell analyses. For each uptake incubation condition triplicate cell samples were analyzed, and Gd content for each sample was recorded as the mean of two MS determinations.

human melanocytes = assay: Intracellular uptake of gadolinium complexes (ICP-MS); format: cell-based; details: 24-h incubation (FIG. 2C)
Experimental: Cell culture. B16 melanoma cells (mouse) and MH3924A Morris hepatoma cells (rat) were obtained from the German Cancer Research Center (DKFZ) tumor bank and grown at 37° C. as stock cultures in RPMI 1640 supplemented with 10% fetal calf serum and 1% glutamine as standard medium under a 5% CO2 atmosphere (all components: Pan Biotech GmbH, Aidenbach, Germany). For contrast agent uptake studies 10^6 cells were inoculated into 25 cm^2 culture flasks (BD Biosciences, Bedford, USA) and grown for 24 h in 10 mL of the standard culture medium. […] Afterwards the medium was removed, cells were trypsinated, washed twice, resuspended in culture medium and counted (typical yields: 3.5-6 million cells). […] After digestion the cells were washed twice with PBS, resuspended in culture medium and counted (typical yields: 6×10^5 cells per tube). The intracellular gadolinium content was determined by ICP-MS as described below.
ICP-MS. […] To each sample 100 μL of an aqueous solution of rhodium chloride (1 μg/mL) were added so that Rh-103 could be used as an internal quantification standard. […] The gadolinium concentrations were determined using standard curves created prior to cell analyses. For each uptake incubation condition triplicate cell samples were analyzed, and Gd content for each sample was recorded as the mean of two MS determinations.

[2] = 1 h post i.v. injection, one ACI rat, scaled to Gd dose of 100 μmol/kg
[3] = 24 h post i.v. injection, one ACI rat
[4] = 24 h post i.v. injection, one ACI rat, scaled to Gd dose of 100 μmol/kg

| Gd concentration, Blood [1, 2] [nmol/g] | Gd concentration, Bone (femur) [1, 2] [nmol/g] | Gd concentration, Bone Marrow (femur) [1, 2] [nmol/g] | Gd concentration, Kidney (+urine) [1, 2] [nmol/g] | Gd concentration, Liver [1, 2] [nmol/g] | Gd concentration, Lung [1, 2] [nmol/g] | Gd concentration, Small Intestine [1, 2] [nmol/g] | Gd concentration, Tumor (MH3924A) [1, 2] [nmol/g] | gadolinium obtained in the faeces ([1]; ACI rat) | gadolinium obtained in the urine ([1]; ACI rat) [%] | Excretion as % of total dose [1, 3] [%] | Gd concentration, Blood [1, 4] [nmol/g] | Gd concentration, Bone (femur) [1, 4] [nmol/g] | Gd concentration, Bone Marrow (femur) [1, 4] [nmol/g] | Gd concentration, Faeces [1, 4] [nmol/g] | Gd concentration, Kidney (+urine) [1, 4] [nmol/g] | Gd concentration, Liver [1, 4] [nmol/g] | Gd concentration, Lung [1, 4] [nmol/g] | Gd concentration, Small Intestine [1, 4] [nmol/g] | Gd concentration, Tumor (MH3924A) [1, 4] [nmol/g] | SMILES | other results |
| --- | --- | --- | --- | --- | --- | --- | --- | --- | --- | --- | --- | --- | --- | --- | --- | --- | --- | --- | --- | --- | --- |
| 7.8 | 2.2 | 0.8 | 120.3 | 4.2 | 12.7 | 18.9 | 5.5 | about 1% | 98 | 98 | 0.1 | 0.9 | 1.7 | 16.6 | 40.9 | 2.0 | 24.2 | 0.4 | 0.6 | NCCN(CCN)C(=O)CN(CCN(CCN(CC(=O)[O-])CC(=O)N(CCN)CCN)CC(=O)[O-])CC(=O)[O-].[Gd+3] [Gd-5.1] | Gd concentration, Brain [1, 2]: 0.5 nmol/g; Gd concentration, Muscle (femur) [1, 2]: 1.6 nmol/g; Gd concentration, Spleen [1, 2]: 4.7 nmol/g; Gd concentration, Urine (cumulative) [1, 2]: 2116.7 nmol/g; Gd concentration, Urine (cumulative) [1, 4]: 537.2 nmol/g; agent still present in the tumor ([1]; 24 h post injection, MH3924A tumor, ACI rat): about 0.020 fmol/cell; preferential tissue binding (biodistribution) ([1]; ACI rat bearing MH3924A tumor, i.v.): binds preferentially to lung tissue and parts of the excretory system e.g. small intestine and kidneys; subcellular concentration, cytoplasma (MH3924A cells): 0.026 fmol/cell; subcellular concentration, cytoskeleton fraction (MH3924A cells): 0.065 fmol/cell; subcellular concentration, nucleus (MH3924A cells): 0.015 fmol/cell |
| 4.8 | 3.3 | 0.9 | 141.6 | 6.6 | 20.2 | 4.0 | 7.2 | about 1% | 98 | 94 | 0.1 | 1.0 | 2.3 | 41.4 | 62.3 | 5.5 | 5.9 | 0.1 | 0.8 | NCCCCN(CCCN)C(=O)CN(CCN(CCN(CC(=O)[O-])CC(=O)N(CCCN)CCCCN)CC(=O)[O-])CC(=O)[O-].[Gd+3] [Gd-6.1] | Gd concentration, Urine (cumulative) [1, 4]: 650.9 nmol/g; factor of higher uptake into B16 melanoma versus human melanocytes (human melanocytes): ~2 |
